Residues, ends and D or L forms follow the SMILES beside them. No end group written: not given here. *: point of attachment. Biotin = O=C1N[C@H]2[C@H](CS[C@H]2CCCCC(=O)*)N1

The target in the first experiment is T1, soluble ectodomain of sortilin-6his (Homo sapiens, UniProt Q99523, V650M).
T1 construct: the soluble ectodomain of sortilin-6his is measured by microscale thermophoresis (MST)
T1 sequence (Q99523 with tags, fused parts or gaps V650M): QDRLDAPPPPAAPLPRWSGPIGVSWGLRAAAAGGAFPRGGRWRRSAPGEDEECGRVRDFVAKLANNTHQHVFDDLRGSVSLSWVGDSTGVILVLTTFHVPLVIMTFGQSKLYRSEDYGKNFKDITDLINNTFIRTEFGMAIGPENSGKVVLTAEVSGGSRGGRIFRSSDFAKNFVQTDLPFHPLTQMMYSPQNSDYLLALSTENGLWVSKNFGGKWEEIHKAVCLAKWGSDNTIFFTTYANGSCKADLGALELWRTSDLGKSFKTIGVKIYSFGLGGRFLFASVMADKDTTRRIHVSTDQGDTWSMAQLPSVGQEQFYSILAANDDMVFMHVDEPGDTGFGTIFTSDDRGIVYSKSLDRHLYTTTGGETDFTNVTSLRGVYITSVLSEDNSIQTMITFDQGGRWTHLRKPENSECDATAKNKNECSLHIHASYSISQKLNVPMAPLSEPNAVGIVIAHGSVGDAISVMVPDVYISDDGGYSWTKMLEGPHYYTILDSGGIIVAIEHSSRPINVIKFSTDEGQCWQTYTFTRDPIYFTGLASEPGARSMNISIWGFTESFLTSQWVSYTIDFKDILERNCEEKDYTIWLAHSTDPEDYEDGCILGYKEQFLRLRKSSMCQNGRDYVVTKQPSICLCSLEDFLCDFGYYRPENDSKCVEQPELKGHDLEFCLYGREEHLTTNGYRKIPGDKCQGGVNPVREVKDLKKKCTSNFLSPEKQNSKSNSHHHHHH
The experiment can be described thus: MST binding to soluble ectodomain of sortilin-6his. Conditions: Table 1; biotin-linker-peptide bifunctional compounds; MST; read-out: KD score, binding to sortilin (Kd). The procedure:
At this point the plate was sealed with adhesive strip and placed on an Eppendorf thermomixer to shake at 600 rpm for 3 min before spinning on a Fisherbrand plate-spinner for 15 seconds and further incubation 1 hrs at 19° C. MST was measured on a Monolith NT. Automated (Nanotemper) in standard-treated capillaries at 5% LED-power and high MST-power. Dose-response was extracted from the raw thermographs at 20 sec hot-time and the dissociation constant was estimated by sigmoidal curve fitting in MO. Affinity analysis program (Nanotemper). All experiments were run in duplicates.
With `CC(C)C[C@H](NC(=O)[C@H](CC(C)C)NC(=O)[C@H](CCC(N)=O)NC(=O)[C@H](CCCNC(=N)N)NC(=O)CNC(=O)CNC(=O)CCCC[C@@H]1SC[C@@H]2NC(=O)N[C@@H]21)C(=O)O` [compound 153] (Biotin-GGRQLL-OH), the Kd was less than 100 nM.

With `CC(C)C[C@H](NC(=O)[C@H](CC(C)C)NC(=O)[C@H](CCC(N)=O)NC(=O)[C@H](Cc1ccccc1)NC(=O)CNC(=O)CNC(=O)[C@H](CO)NC(=O)CNC(=O)CNC(=O)CCCC[C@@H]1SC[C@@H]2NC(=O)N[C@@H]21)C(=O)O` [compound 144] (Biotin-GGSGGFQLL-OH), the dissociation constant Kd is less than 100 nM.

The experiment is the same for the next values; noted with them: Table 3; monofunctional peptides; MST; read-out: KD score, binding to sortilin (Kd).
For `CC(C)C[C@H](NC(=O)[C@H](Cc1ccccc1)NC(=O)[C@H](CCC(N)=O)NC(=O)[C@@H](N)CCCNC(=N)N)C(=O)O` [compound 38] (H-RQFL-OH), the dissociation constant (Kd) is 250 to 2500 nM.

`CC(C)C[C@H](NC(=O)[C@H](CCC(N)=O)NC(=O)[C@@H](N)CCCNC(=N)N)C(=O)O` [compound 166] (H-Arg-Gln-Leu-OH): the Kd is more than 2500 nM.

With `CSCC[C@H](NC(=O)[C@H](CC(C)C)NC(=O)[C@H](CCC(N)=O)NC(=O)[C@@H](N)CCCNC(=N)N)C(=O)O` [compound 165] (H-RQLM-OH), the Kd was more than 2500 nM.

As for GGSGGGGSGGGGSGGRQLL-OH [compound 167], the Kd was 25 to 250 nM.

On to REAPRWDAPLRDPALRYLL-OH [compound 59], for which the Kd was less than 25 nM.

As for `CC[C@H](C)[C@H](NC(=O)[C@H](Cc1ccc(O)cc1)NC(=O)[C@@H]1CCCN1)C(=O)N[C@@H](CC(C)C)C(=O)O` [compound 26] (H-PYIL-OH), the dissociation constant Kd fell in the range of 25 to 250 nM.

In the case of TGGFM-OH [compound 62], the Kd was more than 2500 nM.

The experiment is the same for the next values; noted with them: Table 4; small molecule bifunctional compounds; MST; read-out: KD score, binding to sortilin (Kd).
For the molecule `CC(C)(C)CC[C@H](NC(=O)c1ccc(Oc2cccc(C(=O)NCCOCCOCCOCCOCCNc3ccc([N+](=O)[O-])cc3[N+](=O)[O-])c2)nc1)C(=O)O` [BF003, (2S)-2-[[6-[3-[2-[2-[2-[2-[2-(2,4-dinitroanilino)ethoxy]ethoxy]ethoxy]ethoxy]ethylcarbamoyl]phenoxy]pyridine-3-carbonyl]amino]-5,5-dimethyl-hexanoic acid], the Kd lay within 1 to 10 nM.

Consider `C[C@@H]1CN(c2ncc(-c3ccc4c(n3)N(Cc3cccnc3C#N)C(C)(C)C4=O)cn2)CCN1C(=O)Cn1cc(COCCOCCOCC(=O)N2CCC(Oc3cccc(Oc4ccc(C(=O)N[C@@H](CCC(C)(C)C)C(=O)O)cn4)c3)CC2)nn1` [BF112, (2S)-2-[[6-[3-[[1-[2-[2-[2-[[1-[2-[(2R)-4-[5-[1-[(2-cyano-3-pyridyl)methyl]-2,2-dimethyl-3-oxo-pyrrolo[2,3-b]pyridin-6-yl]pyrimidin-2-yl]-2-methyl-piperazin-1-yl]-2-oxo-ethyl]triazol-4-yl]methoxy]ethoxy]ethoxy]acetyl]-4-piperidyl]oxy]phenoxy]pyridine-3-carbonyl]amino]-5,5-dimethyl-hexanoic acid], for which the equilibrium dissociation constant (Kd) is less than 1 nM.

With `CC(C)(C)CC[C@H](NC(=O)c1ccc(Oc2cccc(C(=O)NCCOCCOCCNc3ncc(-c4ccc5c(n4)N(Cc4cccnc4C#N)C(C)(C)C5=O)cn3)c2)nc1)C(=O)O` [BF049, (2S)-2-[[6-[3-[2-[2-[2-[[5-[1-[(2-cyano-3-pyridyl)methyl]-2,2-dimethyl-3-oxo-pyrrolo[2,3-b]pyridin-6-yl]pyrimidin-2-yl]amino]ethoxy]ethoxy]ethylcarbamoyl]phenoxy]pyridine-3-carbonyl]amino]-5,5-dimethyl-hexanoic acid], the Kd was 1 to 10 nM.

With `Cc1nc2cc(F)c(-c3cnc(OCCOCCn4cc(COCC(=O)N5CC(OCCNC(=O)COc6cccc(Oc7ccc(C(=O)N[C@@H](CCC(C)(C)C)C(=O)O)cn7)c6)C5)nn4)nc3)nc2c(N[C@H](C)c2cc(C#N)ccc2F)c1Cl` [BF088, (2S)-2-[[6-[3-[2-[2-[1-[2-[[1-[2-[2-[5-[7-chloro-8-[[(1R)-1-(5-cyano-2-fluoro-phenyl)ethyl]amino]-3-fluoro-6-methyl-1,5-naphthyridin-2-yl]pyrimidin-2-yl]oxyethoxy]ethyl]triazol-4-yl]methoxy]acetyl]azetidin-3-yl]oxyethylamino]-2-oxo-ethoxy]phenoxy]pyridine-3-carbonyl]amino]-5,5-dimethyl-hexanoic acid], the Kd is 1 to 10 nM.

As for `C[C@@H]1CN(c2ncc(-c3ccc4c(n3)N(Cc3cccnc3C#N)C(C)(C)C4=O)cn2)CCN1C(=O)Cn1cc(COCCOCCN2CCN(CCOCCOc3cccc(Oc4ccc(C(=O)N[C@@H](CCC(C)(C)C)C(=O)O)cn4)c3)CC2)nn1` [BF113, (2S)-2-[[6-[3-[2-[2-[4-[2-[2-[[1-[2-[(2R)-4-[5-[1-[(2-cyano-3-pyridyl)methyl]-2,2-dimethyl-3-oxo-pyrrolo[2,3-b]pyridin-6-yl]pyrimidin-2-yl]-2-methyl-piperazin-1-yl]-2-oxo-ethyl]triazol-4-yl]methoxy]ethoxy]ethyl]piperazin-1-yl]ethoxy]ethoxy]phenoxy]pyridine-3-carbonyl]amino]-5,5-dimethyl-hexanoic acid], the Kd was less than 1 nM.

On to `CC(C)(C)CC[C@H](NC(=O)c1ccc(Oc2cccc(C(=O)NCCOCCOCCOCCOCCOCCOc3ncc(-c4ccc5c(n4)N(Cc4cccnc4C#N)C(C)(C)C5=O)cn3)c2)nc1)C(=O)O` [BF059], for which the equilibrium dissociation constant (Kd) was less than 1 nM.

Regarding `C[C@@H]1CN(c2ncc(-c3ccc4c(n3)N(Cc3cccnc3C#N)C(C)(C)C4=O)cn2)CCN1C(=O)Cn1cc(COCCOCCOCCOCCOc2cccc(Oc3ccc(C(=O)N[C@@H](CCC(C)(C)C)C(=O)O)cn3)c2)nn1` [BF101, (2S)-2-[[6-[3-[2-[2-[2-[2-[[1-[2-[(2R)-4-[5-[1-[(2-cyano-3-pyridyl)methyl]-2,2-dimethyl-3-oxo-pyrrolo[2,3-b]pyridin-6-yl]pyrimidin-2-yl]-2-methyl-piperazin-1-yl]-2-oxo-ethyl]triazol-4-yl]methoxy]ethoxy]ethoxy]ethoxy]ethoxy]phenoxy]pyridine-3-carbonyl]amino]-5,5-dimethyl-hexanoic acid], the Kd was 1 to 10 nM.

Take `C[C@@H]1CN(c2ncc(-c3ccc4c(n3)N(Cc3cccnc3C#N)C(C)(C)C4=O)cn2)CCN1C(=O)COCCCCNc1cccc(Oc2ccc(C(=O)N[C@@H](CCC(C)(C)C)C(=O)O)cn2)c1` [BF046]: the Kd is less than 1 nM.

`CC(C)(C)CC[C@H](NC(=O)c1ccc(Oc2cccc(C(=O)NCCOCCOCCOc3ncc(-c4ccc5c(n4)N(Cc4cccnc4C#N)C(C)(C)C5=O)cn3)c2)nc1)C(=O)O` [BF070, (2S)-2-[[6-[3-[2-[2-[2-[5-[1-[(2-cyano-3-pyridyl)methyl]-2,2-dimethyl-3-oxo-pyrrolo[2,3-b]pyridin-6-yl]pyrimidin-2-yl]oxyethoxy]ethoxy]ethylcarbamoyl]phenoxy]pyridine-3-carbonyl]amino]-5,5-dimethyl-hexanoic acid]: the dissociation constant Kd fell in the range of 1 to 10 nM.

With `CC(C)(C)CC[C@H](NC(=O)c1ccc(Oc2cccc(C(=O)NCCOCCOCCOCCOCc3ccc(-c4cccc5ccncc45)c(OCCc4ccc(-c5cccc6ccncc56)cc4)c3)c2)nc1)C(=O)O` [BF035, (2S)-2-[[6-[3-[2-[2-[2-[2-[[4-(8-isoquinolyl)-3-[2-[4-(8-isoquinolyl)phenyl]ethoxy]phenyl]methoxy]ethoxy]ethoxy]ethoxy]ethylcarbamoyl]phenoxy]pyridine-3-carbonyl]amino]-5,5-dimethyl-hexanoic acid], the Kd fell in the range of 1 to 10 nM.

For the origin of these results see patent publication US20250345446A1 (Draupnir Bio ApS, priority 2022, published 2025).
